# Source: patent US7078395B1, “Methods for treating or preventing cancer by preventing, inhibiting or arresting cell cycling” (priority 1999, dated 2006)
# Several values for one entry are separate records, joined by “and”; a condition that tells them apart may be missing. Equal entries are not always repeated.
# Assays:
# MCF-7 cells [1] = assay: TUNEL analysis of apoptosis; type: cell-based; details: 10 μM, 48 h
# Description: The ability of 2-MeOEMATE to induce apoptosis in MCF-7 cells was examined by TUNEL analysis using an in situ cell death detection kit (Boehringer Manheim UK Ltd., Lewes, East Sussex, UK). Cells were fixed and permeabilised according to the manufacturers' instructions. Stained apoptotic cells were quantitated by flow cytometry.
# [2] = system: breast tumour-derived fibroblasts; assay: Morphology and cell number (Coulter counter) of fibroblasts; type: cell-based; details: 24 h
# Method: For the culture of fibroblasts, resected breast tumour tissue was minced and incubated in EMEM for 18-24 h at 37° C. with collagenase (200 μg/ml). The dispersed cells were harvested by centrifugation and washed twice with medium to remove collagenase. Dispersed cells were seeded into culture flasks and grown to confluence before passaging on a weekly basis. For experimental purposes 12 well multi-well plates or 25 cm^2 flasks were seeded with fibroblasts and grown to 70-80% confluency. Cells were washed with PBS and exposed to drugs for 24 h before determining cell numbers using a Coulter counter.
# (§1) Photomicrographs of control and treated cells were taken under normal conditions of light and exposure using an Olympus SL35 Type 12 camera under an Olympus CK2 microscope (×100 magnification).
# steroid sulphatase = target: T1, steroid sulphatase (Homo sapiens, UniProt P08842); details: compared with EMATE (18, 19); cited from earlier work
# T1 sequence (P08842 22-583): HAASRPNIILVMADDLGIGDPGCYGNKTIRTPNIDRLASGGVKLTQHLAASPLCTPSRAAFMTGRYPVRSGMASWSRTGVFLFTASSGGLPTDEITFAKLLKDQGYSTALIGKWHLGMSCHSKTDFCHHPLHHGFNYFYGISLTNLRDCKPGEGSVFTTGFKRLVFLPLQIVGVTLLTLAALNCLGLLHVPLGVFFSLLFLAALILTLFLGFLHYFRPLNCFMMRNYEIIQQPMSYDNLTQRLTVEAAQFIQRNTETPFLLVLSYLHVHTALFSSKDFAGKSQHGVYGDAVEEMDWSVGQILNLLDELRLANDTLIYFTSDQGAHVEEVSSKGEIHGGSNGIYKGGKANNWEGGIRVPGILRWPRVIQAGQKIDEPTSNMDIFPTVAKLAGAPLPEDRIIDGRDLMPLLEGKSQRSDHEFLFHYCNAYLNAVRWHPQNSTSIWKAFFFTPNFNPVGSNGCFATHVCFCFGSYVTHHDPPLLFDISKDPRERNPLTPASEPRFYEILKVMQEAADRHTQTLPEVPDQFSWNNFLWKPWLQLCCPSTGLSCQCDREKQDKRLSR
# [3] = (18, 19); cited from earlier work
# MCF7 cells = assay: Proportion of cells in mitosis (PI stained cytospins, confocal microscopy); type: cell-based; details: 24 hours (control 4%)
# Method: To determine the proportion of cells in mitosis, drug treated cells were collected by trypsinisation and cytospins prepared. Cells were fixed in ice cold methanol for 5 minutes, air dried and DNA was stained using propidium iodide (PI) (0.1 mg/ml in phosphate buffered saline (PBS) containing 10% (v/v) newborn calf serum and 0.05% (w/v) sodium azide). Cells were analysed by confocal microscopy using a Zeiss Axiovert 100 M microscope equipped with the LSM 510 confocal system (Zeiss, Jena, Germany).
# Effect of estrone derivatives on mitosis in MCF7 cells. MCF7 cells were treated with the indicated compounds for 24 hours. Cells were recovered by trypsinisation and cytospins prepared. DNA was stained with PI and cells in mitosis (i.e., with condensed chromosomes) determined as a percentage of total cells.
# [4] = system: nitrosomethylurea-induced mammary tumours; assay: Growth of NMU-induced mammary tumours in intact rats; type: in vivo, rat
# Method: The effect of 2-MeOEMATE on mammary tumour growth was examined in a preliminary study using Ludwig rats (Harlan Olac, Bicester, UK) in which tumours were induced by inoculation of NMU. Tumour development was monitored regularly and when 0.5-1.0 cm^3 in volume, animals received vehicle (propylene glycol, 200 μl/day, p.o.), 2-MeOEMATE (20 mg/kg/day, p.o.) or 2-MeOE1 (20 mg/kg/day, p.o.) daily for an 11 day period. Tumour length and width was measured with callipers and tumour volumes calculated as described (21).
# MCF-7 cells [5] = assay: Flow cytometry analysis of cell cycle distribution (propidium iodide); type: cell-based; details: 10 μM; for proportion of cells in the G1 phase: time-course study (untreated 66%)
# Method: Cells were cultured in the presence of 2-MeOE1, 2-MeOEMATE or vehicle for up to 48 h. To examine the reversibility of the effects of 2-MeOEMATE on the cell cycle, cells were treated for 24 h with the drug after which cells were washed and cultured in fresh medium without drug for a further 24 h period.
# To prepare cells for analysis of DNA content, cells were trypsinised (0.25% trypsin, 0.02% EDTA), washed with PBS and fixed with 70% ethanol. Cells were collected by centrifugation, re-suspended in PBS (1-2×10^6 cells/ml) and treated with RNase A (0.1 mg/ml) and stained with propidium iodide (0.05 mg/ml) for 30 min at room temperature. Cells were analysed with a flow cytometer (FACscan, Becton Dickinson Immunocytormetry System, Bedford Mass.).
# [6] = system: MCF-7 breast cancer cells; assay: Cell morphology by photomicrographs; type: cell-based; details: 1 μM, 24 h
# Method: MCF-7 (ER+) and MDA-MB-231 (ER−) breast cancer cells were obtained from the American Type Culture Collection (Rockville, Md.). Cells were routinely cultured in 25 cm^2 culture flasks in Eagle's minimum essential medium (EMEM) with Hepes buffer (20 mM). This medium was supplemented with L-glutamine (2 mM), sodium hydrogen carbonate (10 mM), 1% non-essential amino acids and 5% (v/v) foetal calf serum (FCS). Before adding test compounds, cells were washed with phosphate-buffered saline (PBS) and treatments added in phenol-red free medium containing 2% stripped FCS and supplements. The effects of 2-MeOE1 or 2-MeOEMATE on the growth of MCF-7 cells was assessed using a Cell Titer 96 cell proliferation assay (Promega, Southampton, Hants, UK) according to the manufacturers' instructions. For this, cells (5000 per well) were cultured in medium containing phenol-red and 10% FCS and were exposed to a drug for 4 days before the assay was performed. For MDA-MB-231 cells, cell numbers were determined using a Coulter counter.
# as §1
compound,measurement,setting,value
"COc1cc2c(cc1OS(N)(=O)=O)CCC1C2CC[C@]2(C)C(=O)CCC12 (some centres unmarked) [2-MeOEMATE, 2-methoxyoestrone-3-O-sulphamate]",fluorescently labelled (TUNEL positive) cells as proportion of the cell population,MCF-7 cells [1],approximately 10%
same,effect on fibroblast morphology,[2]; 1 μM,little effect on cell morphology
same,effect on fibroblast morphology,[2]; 5 μM,rounding of a significant proportion of fibroblasts
same,effect on the number of fibroblasts,[2],did not reduce the number of fibroblasts
same,potency as a steroid sulphatase inhibitor,steroid sulphatase,equipotent with EMATE
same,oestrogenicity,[3],devoid of oestrogenicity
same,"mitotic cells, percentage of total cells",MCF7 cells; 500 nM,26%
same,"mitotic cells, percentage of total cells",MCF7 cells; 5 μM,38%
same,reduction in tumour volume,"[4]; 20 mg/kg/day, p.o., 11 days, individual animals",almost complete regression of ⅔ tumours and 8% and tumours regressed rapidly and were barely palpable and regressed almost completely
same,regrowth of regressed tumours,[4]; monitored for a further 33 days after 11-day dosing,no regrowth of tumours was detected
same,time by which accumulation of cells in the G2/M phase was apparent,MCF-7 cells [5],≤ 12 h
same,proportion of cells in the G1 phase,MCF-7 cells [5]; 12 h exposure,50%
same,"cell cycle distribution, G1",MCF-7 cells [5]; 24 h,10
same,"cell cycle distribution, G2/M",MCF-7 cells [5]; 24 h,60
same,"cell cycle distribution, S",MCF-7 cells [5]; 24 h,8
same,"cell cycle distribution, Sub-G1",MCF-7 cells [5]; 24 h,22
same,"cell cycle distribution, G1",MCF-7 cells [5]; 24 h + 24 h drug-free culture,8
same,"cell cycle distribution, G2/M",MCF-7 cells [5]; 24 h + 24 h drug-free culture,57
same,"cell cycle distribution, S",MCF-7 cells [5]; 24 h + 24 h drug-free culture,7
same,"cell cycle distribution, Sub-G1",MCF-7 cells [5]; 24 h + 24 h drug-free culture,27
same,proportion of cells in the G1 phase,MCF-7 cells [5]; 24 h exposure,23%
same,"cell cycle distribution, G1",MCF-7 cells [5]; 48 h,14
same,"cell cycle distribution, G2/M",MCF-7 cells [5]; 48 h,58
same,"cell cycle distribution, S",MCF-7 cells [5]; 48 h,9
same,"cell cycle distribution, Sub-G1",MCF-7 cells [5]; 48 h,18
same,effect on cell morphology,[6],significant increase in the number of rounded and detached cells
